Conditions: Fluid (supercritical or subcritical phases), Bellows volumetry

CCCC [butane]
mass density [kg/m3]
Conditions | 280 K | 300 K | 320 K | 340 K | 360 K | 380 K
1000 kPa | 595.47 | 572.94 | 548.24 | 521.26 | – | –
2000 kPa | 596.86 | 574.58 | 550.53 | 524.21 | 494.28 | 456.63
3000 kPa | 598.22 | 576.27 | 552.73 | 527.06 | 498.49 | 463.53
5000 kPa | 600.88 | 579.56 | 556.84 | 532.46 | 505.91 | 474.94
10000 kPa | 607.05 | 586.77 | 566.09 | 544.06 | 520.98 | 495.21
20000 kPa | 617.68 | 599.44 | 580.87 | 561.99 | 542.91 | 522.42
30000 kPa | 626.91 | 610.13 | 593.19 | 576.2 | 559.24 | 541.49
40000 kPa | 635.29 | 619.89 | 603.68 | 588.27 | 572.58 | 556.53
50000 kPa | 642.77 | 628.14 | 612.97 | 598.47 | 584.17 | 569.05
60000 kPa | 649.44 | 635.82 | 621.23 | 607.64 | 593.9 | 580.01
70000 kPa | 655.79 | 642.36 | 628.85 | 615.81 | 602.93 | 589.59
80000 kPa | 661.73 | 648.71 | 635.85 | 623.32 | 610.9 | 598.34
90000 kPa | 667.23 | 654.83 | 642.47 | 630.37 | 618.47 | 606.19
100000 kPa | 672.51 | 660.41 | 648.38 | 636.58 | 625.39 | 613.44
120000 kPa | 682.08 | 670.68 | 659.38 | 648.45 | 637.62 | 626.58
140000 kPa | 690.89 | 680.05 | 669.21 | 658.64 | 648.76 | 638.25
160000 kPa | 698.82 | 688.48 | 678.31 | 668.16 | 658.47 | 648.59
180000 kPa | 706.38 | 696.25 | 686.49 | 676.9 | 667.68 | 658.14
200000 kPa | 713.34 | 703.51 | 694.12 | 684.85 | 676.03 | 666.86

From the NIST ThermoML archive (doi:10.1016/j.jct.2006.09.003)
